{"source": "patent US20250154219A1", "about": "“PEPTIDE ANALOGS” (Adepthera LLC, priority 2017, published 2025)", "key": {"[1]": {"target": "somatostatin receptor SSTR2 (Homo sapiens, UniProt P30874)", "sequence (P30874 whole entry)": "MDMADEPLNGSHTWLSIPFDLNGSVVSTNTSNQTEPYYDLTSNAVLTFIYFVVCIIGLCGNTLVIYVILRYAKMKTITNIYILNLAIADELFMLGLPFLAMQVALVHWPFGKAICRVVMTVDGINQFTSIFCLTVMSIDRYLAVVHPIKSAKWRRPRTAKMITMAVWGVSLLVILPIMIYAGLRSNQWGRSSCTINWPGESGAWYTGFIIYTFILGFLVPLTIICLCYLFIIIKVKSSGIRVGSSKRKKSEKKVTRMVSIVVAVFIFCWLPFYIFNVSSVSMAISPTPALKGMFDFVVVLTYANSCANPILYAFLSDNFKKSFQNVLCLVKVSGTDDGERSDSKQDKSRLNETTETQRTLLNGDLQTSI", "conditions": "arrestin assay", "protocol": "The agonistic activities toward SSTR2, NTSR1, and AGTRL1 were assayed with an SSTR2 arrestin assay, an NTSR1 calcium flux assay, and an AGTRL1 CAMP assay (Discoverx Inc.), respectively.\n(§1) For the Arrestin assays, PathHunter cell lines (Discoverx Inc.) were expanded from freezer stocks, and seeded in a total volume of 20 μL into white walled, 384-well microplates and incubated at 37 C for the appropriate time prior to testing. For agonist determination, cells were incubated with sample to induce response. […] The microplates were read following signal generation with a PerkinElmer Envision™ instrument for chemiluminescent signal detection.\n(§2) The compound activity was analyzed using a CBIS data analysis suite (ChemInnovation, CA). For agonist mode assays, percentage activity was calculated using the following formula:\n(§3) % Activity=100%×(mean RLU of test sample−mean RLU of vehicle control)/(mean MAX control ligand−mean RLU of vehicle control)."}, "CLR/RAMP1 receptor": {"target": "CLR/RAMP1 receptor (Homo sapiens, UniProt O60894+Q16602)", "sequence (Q16602 23-461)": "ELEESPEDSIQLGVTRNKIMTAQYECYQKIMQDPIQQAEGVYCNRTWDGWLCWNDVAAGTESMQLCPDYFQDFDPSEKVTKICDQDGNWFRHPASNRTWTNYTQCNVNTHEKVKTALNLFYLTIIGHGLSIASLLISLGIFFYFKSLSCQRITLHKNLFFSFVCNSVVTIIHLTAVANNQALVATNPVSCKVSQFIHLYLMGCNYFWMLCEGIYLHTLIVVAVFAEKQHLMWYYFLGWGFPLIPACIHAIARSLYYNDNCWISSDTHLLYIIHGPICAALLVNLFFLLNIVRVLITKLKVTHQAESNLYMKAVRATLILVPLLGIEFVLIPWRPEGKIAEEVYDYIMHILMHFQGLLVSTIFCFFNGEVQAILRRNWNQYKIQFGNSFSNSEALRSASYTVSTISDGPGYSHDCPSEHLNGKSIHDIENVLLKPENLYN", "sequence (O60894 27-148)": "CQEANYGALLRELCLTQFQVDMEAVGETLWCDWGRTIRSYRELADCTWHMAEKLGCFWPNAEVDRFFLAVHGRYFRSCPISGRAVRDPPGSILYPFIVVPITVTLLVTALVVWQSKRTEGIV", "experiment": "CLR/RAMP1 cAMP receptor-activation assay (agonist mode);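 further: Dose–response over 10 threefold dilutions from 1.0 µM, run in duplicate, luminescent cAMP detection (RLU), activity scaled between vehicle control (0%) and maximal control (100%)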", "format": "cell-based", "conditions": "agonist mode; positive control β-CGRP", "protocol": "(§4) Using a receptor activation assay, the dose-dependent stimulatory response of peptide agonists on a CLR/RAMP1 receptor, a CLR/RAMP2, or a CLR/RAMP3 receptor complex was determined. A cell line carrying the recombinant CLR/RAMP1, CLR/RAMP2, or a CLR/RAMP3 receptor was employed in the assay. Peptide agonist activities were tested, in duplicate, at 10 different concentrations, starting with 1.0 μM and serially diluted 3-fold, in DMSO. […] The CLR/RAMP1 CAMP, CLR/RAMP2 arrestin, and CLR/RAMP3 CAMP assays (DiscoveRx, Fremont, Calif.) were used.\n(§5) The pharmacology of superagonistic activity of synthetic analogs was studied in cells that stably express CLR/RAMP1 (1321N1 cells), CLR/RAMP2 (CHO-K1 cells), or CLR/RAMP3 (CHO-K1 cells) receptors.\nFor the analysis of Gs-coupled CAMP production, cAMP Hunter cell lines were expanded from freezer stocks, and cells were seeded in a total volume of 20 μL into white walled, 384-well microplates and incubated at 37 C for the appropriate time prior to testing. The CAMP modulation was determined using the DiscoverX HitHunter CAMP XS+ assay. For agonistic activity determination, cells were incubated with sample to induce response. Media was aspirated from cells and replaced with 15 μL 2:1 HBSS/10 mM Hepes: CAMP XS+Ab reagent. […] For Gs-coupled agonistic assays, percentage activity is calculated using the following formula: % Activity=100%×(mean RLU of test sample−mean RLU of vehicle control)/(mean RLU of MAX control−mean RLU of vehicle control)."}, "[2]": {"target": "T1, bradykinin receptor 1 (BDKRB1) (Homo sapiens, UniProt P46663)", "T1 sequence (P46663 1-353)": "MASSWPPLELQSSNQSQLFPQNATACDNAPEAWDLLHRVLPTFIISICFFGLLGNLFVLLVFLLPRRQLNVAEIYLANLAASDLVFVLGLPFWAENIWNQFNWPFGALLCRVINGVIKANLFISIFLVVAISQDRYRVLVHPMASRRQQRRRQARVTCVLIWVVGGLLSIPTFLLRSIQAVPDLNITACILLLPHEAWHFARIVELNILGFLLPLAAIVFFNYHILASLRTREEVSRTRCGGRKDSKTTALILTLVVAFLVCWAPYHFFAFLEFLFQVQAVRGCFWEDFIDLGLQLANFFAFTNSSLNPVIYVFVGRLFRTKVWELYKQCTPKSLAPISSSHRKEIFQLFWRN", "experiment": "BDKRB1 calcium flux assay, antagonist mode", "format": "cell-based", "conditions": "IC50 column pair", "protocol": "(§6) The antagonistic activities toward BDKRB1 and AGTR1 were assayed with a BDKRB1 calcium flux assay and an AGTR1 calcium flux assay (Discoverx Inc.), respectively.\n(§7) For antagonist determination, cells were pre-incubated with sample followed by agonist challenge at the EC80 concentration. Intermediate dilution of sample stocks was performed to generate 3× sample in assay buffer. After dye loading, cells were removed from the incubator and 10 μL 3× sample was added. Cells were incubated for 30 minutes at room temperature in the dark to equilibrate plate temperature. […] Compound antagonistic activity was measured on a FLIPR Tetra (MDS), and calcium mobilization was monitored for 2 minutes and 10 μL EC80 agonist in HBSS/20 mM Hepes was added to the cells 5 seconds into the assay.\n(§8) For antagonist assays, percentage inhibition is calculated using the following formula: % Inhibition=100%×(1−(mean RFU of test sample−mean RFU of vehicle control)/(mean RFU of EC80 control−mean RFU of vehicle control))."}, "CLR/RAMP2 receptor": {"target": "CLR/RAMP2 receptor (Homo sapiens, UniProt O60895+Q16602)", "sequence (Q16602 23-461)": "as the sequence (Q16602 23-461) above", "sequence (O60895 43-175)": "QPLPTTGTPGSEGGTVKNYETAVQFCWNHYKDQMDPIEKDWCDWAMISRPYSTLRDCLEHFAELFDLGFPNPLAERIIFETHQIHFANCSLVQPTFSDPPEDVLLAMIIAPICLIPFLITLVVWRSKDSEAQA", "experiment": "CLR/RAMP2 arrestin receptor-activation assay (agonist mode);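 further: agonist dose-response in recombinant cell lines stably expressing each receptor complex, duplicate wells over 10 threefold dilutions from a top concentration of 1.0 µM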", "format": "cell-based", "conditions": "agonist mode; positive control ADM", "protocol": "as §4, §5, §1, §2, §3"}, "[3]": {"target": "T2, type 1 angiotensin II receptor AGTR1 (Homo sapiens, UniProt P30556)", "T2 sequence (P30556 1-359)": "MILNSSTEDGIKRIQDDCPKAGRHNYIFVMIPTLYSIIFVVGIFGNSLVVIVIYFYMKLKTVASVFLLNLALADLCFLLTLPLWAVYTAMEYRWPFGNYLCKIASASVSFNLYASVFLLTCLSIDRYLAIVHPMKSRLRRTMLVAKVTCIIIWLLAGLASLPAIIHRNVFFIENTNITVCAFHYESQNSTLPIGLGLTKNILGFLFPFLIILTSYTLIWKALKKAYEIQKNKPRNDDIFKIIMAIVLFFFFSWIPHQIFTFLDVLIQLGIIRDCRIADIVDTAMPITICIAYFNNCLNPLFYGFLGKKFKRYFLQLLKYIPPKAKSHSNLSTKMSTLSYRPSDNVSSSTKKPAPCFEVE", "experiment": "AGTR1 calcium flux assay, antagonist mode", "format": "cell-based", "protocol": "as §6, §7, §8"}}, "data": [{"compound": "CSCC[C@H](NC(=O)[C@H](C)NC(=O)[C@@H]1CCCN1C(=O)[C@H](CC(N)=O)NC(=O)[C@H](CO)NC(=O)[C@H](CC(N)=O)NC(=O)[C@H](C)NC(=O)[C@@H](N)CO)C(=O)N[C@@H](C)C(=O)N1CCC[C@H]1C(=O)N[C@@H](CCCNC(=N)N)C(=O)N[C@@H](CCC(=O)O)C(=O)N[C@@H](CCCNC(=N)N)C(=O)N[C@@H](CCCCN)C(=O)N[C@@H](C)C(=O)NCC(=O)N[C@H]1CSSC[C@@H](C(=O)O)NC(=O)[C@H](CO)NC(=O)[C@H]([C@@H](C)O)NC(=O)[C@H](Cc2ccccc2)NC(=O)[C@H]([C@@H](C)O)NC(=O)[C@H](CCCCN)NC(=O)[C@H](Cc2c[nH]c3ccccc23)NC(=O)[C@H](Cc2ccccc2)NC(=O)[C@H](Cc2ccccc2)NC(=O)[C@H](CC(N)=O)NC(=O)[C@H](CCCCN)NC1=O", "note": "[Somatostatin 28]", "values": [{"measurement": "SSTR2 Max Activity", "setting": "[1]", "result": "102 % of positive controls"}]}, {"compound": "Ace-KRPPGFS-DβNal-I-miniPEG-K(PAL)GCRFGTCTVQKLAHQIYQFTDKDVAPRSKISPQGY-NH2 [SEQ ID NO: 231]", "values": [{"measurement": "CLR/RAMP1 Max Activity % of positive control", "setting": "CLR/RAMP1 receptor", "result": "115 % of positive control"}, {"measurement": "BDKRB1 Max Activity", "setting": "[2]", "result": "109 % of positive controls"}, {"measurement": "CLR/RAMP2 Max Activity % of positive control", "setting": "CLR/RAMP2 receptor", "result": "46 % of positive control"}]}, {"compound": "Sar-RVYVHPA-miniPEG-K(PAL)GCRFGTCTVQKLAHQIYQFTDKDVAPRSKISPQGY-NH2 [SEQ ID NO: 234]", "values": [{"measurement": "AGTR1 Max Activity (IC50 column pair)", "setting": "[3]", "result": "104 % of positive controls"}, {"measurement": "CLR/RAMP1 Max Activity % of positive control", "setting": "CLR/RAMP1 receptor", "result": "132 % of positive control"}, {"measurement": "CLR/RAMP2 Max Activity % of positive control", "setting": "CLR/RAMP2 receptor", "result": "86 % of positive control"}]}]}
